A short description of series [1]: IFT experiments by spinning drop tensiometer. The following applies: 347 K. In kind it is physicochemical. On the procedure:
IFT experiments. […] During the measurement, the denser phase was placed into a horizontal tube first, and then a droplet of the less dense phase was placed into the horizontal tube while the tube was rotating. The droplet was deformed owing to the rotation, which was visualized by using a high-power monochromatic light-emitting diode and stroboscope. The shape of a droplet spinning in the capillary tube was recorded by a high-resolution camera.
IFT values were measured for four systems: (1) crude oil and RB, (2) 3p and 1.1-wt % 3 pRB, (3) crude oil and 1.1-wt % 3 pRB, and (4) crude oil diluted by 18.6 wt % 3p and 0.8-wt % 3 pRB. System 1 was at phase equilibrium. A certain level of mass transfer was expected during the IFT measurement for the other three pseudo-binary systems. In system 2, water could transfer from 1.1-wt % 3 pRB to the 3p-rich phase. An IFT was estimated by using the densities of 3p and 1.1-wt % 3 pRB. In system 3, 3p could be transferred from RB to crude oil, which reduced the density of the oleic phase. Therefore, the upper-limit and lower-limit density values were assigned for the oleic phase to calculate a possible range of IFTs for this system. System 4 was tested to validate the range of IFT values estimated for system 3.

Series [2] in a line: Coreflooding of fractured cores, vertical (Example 2). On the procedure: Experimental Procedure for Coreflooding. […] The Indiana limestone cores have the common dimensions with a diameter of 0.0254 m and a length of 0.127 m. The cores were saturated with RB first and then oil, during which the core properties were measured, such as porosity, permeability, and water and oil saturations.
It includes an accumulator for crude oil, a pump, a Hassler-type core holder, a hydraulic manual pump to maintain the overburden pressure, a differential pressure gauge, cylinders, and an oven. After a core was placed in the core holder, oil was injected into the cores at 100 cm^3/h and 347 K until no water production was observed.
An artificial fracture was created along the longitudinal axis using an electric saw for each core (FIG. 20). By following the procedure of Mejia, Teflon spacers with 0.001 m in width and 0.127 m in length were placed along two edges of the fracture to maintain a fracture aperture. Then, the core halves were carefully put together with the Teflon spacers in the fracture, wrapped with a Teflon tube, and placed inside a vertically oriented coreholder.
FIG. 21 provides a schematic of the experimental setup for coreflooding. It consists of accumulators for crude oil, RB, and chemical solution (3-pentanone or surfactant), a pump, a Hassler-type core holder, a hydraulic manual pump to maintain the overburden pressure, a differential pressure gauge, cylinders, and an oven. […] After a fractured core was placed in the coreholder, the oven temperature was increased to reservoir temperature (347 K). Then, the core was flooded with crude oil to remove any gas inside the fracture and measure the fracture permeability using the flow rate of 900 cm^3/h. The overburden pressure was adjusted so that all cores used in this research had similar fracture apertures and fracture permeabilities.
Fracture permeabilities were calculated. The equation for flow between parallel plates b=(3πdke)^1/3 was used to estimate a fracture aperture, where b is the fracture aperture, d is the core diameter, and ke is the effective oil permeability of the fractured core. […] Af and Am are cross-sectional areas of the fracture and matrix, respectively. kf and km are permeabilities of the fracture and matrix, respectively.
The initial RB stage was at 6 cm^3/h for 1.5 pore volumes injected (PVI), then at 0.05 cm^3/h for 0.3-0.4 PVI, and at 6 cm^3/h until there was no oil production. After that, a chemical slug (3-pentanone or surfactant) was injected at 0.6 cm^3/h for 1.6 PVI. Finally, the chase RB was injected at 0.6 cm^3/h. […] However, it was terminated after 1.2 PVI of the chase RB for core 1 because of operational constraints.
The coreflood effluent was collected in plastic graduating cylinders at room temperature. To correct the oil recovery factor for 3-pentanone solubility in oil, the 3-pentanone concentration in recovered oil was measured by the proton nuclear magnetic resonance (H NMR) method for the chemical slug and chase RB flooding periods for core 1.

A short description of series [3]: Spontaneous imbibition in Amott cells. As to conditions: oil diluted by 18.6 wt % 3p.
A short description of series [4]: Density of crude oil/3p mixtures (in-line densitometer). Type of series: physicochemical. The following applies: 347 K. How it is done:
Density and viscosity experiments. […] The system consists mainly of automated pumps, a sample accumulator, an in-line fluid densitometer, an in-line viscometer, an oven, and an effluent accumulator. The pump (Teledyne ISCO 100DX) maintained the system pressure automatically by water.
In the density measuring cell (Anton Paar DMA-HPM), fluid's density is measured in a U-shaped tube, in the range from 0 to 3000 kg/m^3. The instrument precision of the density meter is ±1 kg/m^3. Anton Paar DMA-HPM uses the method of oscillating U-tube for its density measurement, in which the sample's density is calculated from the sample's period of oscillation. The in-line viscometer (ViscoPro 2100) measures the viscosity of a fluid in the range from 0.2 to 2 cp. The instrument precision of the viscometer is ±0.02 cp and repeatability is ±0.5% of the reading. During the viscosity measurement, the magnetic piston is surrounded by the fluid sample and oscillates under magnetic force. The sample's viscosity is calculated from the time required for the piston to complete a two-way cycle. The viscometer and density meter were placed in a Despatch oven (model LAC2-18-8). Light-emitting diode screens that display measured data from the fluid densitometer and viscometer were connected outside the oven. The absolute pressure of the system was measured with a pressure gauge (Omega PX459-2.5KGI-EH).
Densities and viscosities were measured for the following mixtures of crude oil and 3p: 81.4 wt % crude oil and 18.6 wt % 3p (33 mol % 3p), 59.0 wt % crude oil and 41.0 wt % 3p (60 mol % 3p), and 35.1 wt % crude oil and 64.9 wt % 3p (80 mol % 3p). Each mixture was mixed in a glass bottle with a magnetic mixer before placing it in the accumulator.
Before each measurement, the system was cleaned thoroughly with toluene. Then, the system was dried by air and evacuated. Next, the fluid mixture was pumped into the system from the accumulator. Then, the temperature in the oven was increased to 347 K. When the temperature in the oven was stable, the mixture was measured for viscosities and densities at different pressures, ranging from 101 kPa to 10342 kPa.

These results are taken from US12031087B2, “Oxygenated solvents for improved production of oil and gas” (Board of Regents, The University of Texas System, priority 2019, dated 2024).

`CCC(=O)CC` [3-pentanone]: the “effect of 3p on IFT between oleic and aqueous phases” value in series [1] (1.1 wt % 3p in aqueous phase) is listed as “essentially no effect”. The compound further registered an IFT in series [1] (system 2: 3p and 1.1-wt % 3pRB, atmospheric pressure) of 10.02 mN/m. Further, the “incremental oil recovery factor, chase RB flooding stage” value in series [2] (1.2 PVI chase RB (terminated), core 1, 347 K) came out at 8.4%. The “incremental oil recovery factor, chemical slug stage” value in series [2] (1.6 PVI slug after first RB flood, 1.1 wt % 3-pentanone in RB (core 1) or 1.0 wt % 2-EH-4PO-15EO in RB (core 2), 347 K) is on record as 30.9%. Besides, the “total improved oil recovery” value in series [2] (chemical slug + chase RB stages (1.2 PVI chase core 1; 7.0 PVI chase core 2), 347 K) is on record as 39.3%. For the same compound, the “increase of oleic phase saturation (oil swelling)” value in series [3] (347 K, atmospheric pressure) is reported as 24%. For the same compound, the “enhancement of oil recovery rate because of oil dilution by 3p (scaling theory)” value in series [3] (spontaneous imbibition) was determined as 13%. Further, the “density of crude oil diluted with 18.6 wt % 3-pentanone” value in series [4] (atmospheric pressure) is given as 772 kg/m^3. For the same compound, the Density in series [4] (crude oil with 18.6 wt % (33 mol %) 3-pentanone, 103.97 kPa) is given as 771.8049 kg/m^3; in series [4] (crude oil with 18.6 wt % (33 mol %) 3-pentanone, 1385.02 kPa), 773.0452 kg/m^3; in series [4] (crude oil with 18.6 wt % (33 mol %) 3-pentanone, 3452.00 kPa) it was 775.0159 kg/m^3; in series [4] (crude oil with 18.6 wt % (33 mol %) 3-pentanone, 6899.03 kPa), 778.2247 kg/m^3; in series [4] (crude oil with 18.6 wt % (33 mol %) 3-pentanone, 10345.03 kPa), 781.3632 kg/m^3; in series [4] (crude oil with 41.0 wt % (60 mol %) 3-pentanone, 107.01 kPa), 768.9360 kg/m^3. Besides, the Density in series [4] (crude oil with 41.0 wt % (60 mol %) 3-pentanone, 1379.02 kPa) stood at 770.3187 kg/m^3; in series [4] (crude oil with 41.0 wt % (60 mol %) 3-pentanone, 3447.03 kPa), 772.3456 kg/m^3; in series [4] (crude oil with 41.0 wt % (60 mol %) 3-pentanone, 3891.03 kPa) it was 775.7424 kg/m^3; in series [4] (crude oil with 41.0 wt % (60 mol %) 3-pentanone, 10343.03 kPa) it was 779.0497 kg/m^3; in series [4] (crude oil with 64.9 wt % (80 mol %) 3-pentanone, 101.01 kPa) it was 765.4374 kg/m^3; in series [4] (crude oil with 64.9 wt % (80 mol %) 3-pentanone, 1383.02 kPa), 766.7794 kg/m^3. Moreover, the Density in series [4] (crude oil with 64.9 wt % (80 mol %) 3-pentanone, 3445.03 kPa) is listed as 769.0788 kg/m^3; in series [4] (crude oil with 64.9 wt % (80 mol %) 3-pentanone, 6896.00 kPa), 772.6733 kg/m^3; in series [4] (crude oil with 64.9 wt % (80 mol %) 3-pentanone, 10342.00 kPa), 776.2332 kg/m^3.
